In test [1] the test system is pATM, γH2AX, cytochrome c. Nature of the test: Western blot analysis of DNA damage and mitochondrial markers. The test is classed as cell-based. The protocol: The western blot analysis is performed as follows: Protein lysates (25 ug/sample) are separated by electrophoresis into the SDS-PAGE, which is then transferred to a nitrocellulose membrane for immunoblotting analysis. The protein membranes are blocked with 5% non-fat milk in PBS at room temperature (RT) for 1 h, followed by incubation with primary antibodies against proteins of interests diluted in 2% BSA in Phosphate Buffered Saline with Tween-20 (PBST) at 1:500 or 1:1000 at 4° C. overnight. The membranes are washed with PBST three times at 5 min for each wash on an orbital shaker, and then incubated with secondary antibodies against the species of the primary antibodies (i.e. anti-mouse or anti-rabbit) diluted in 5% non-fat milk in PBST for 1 h at RT with shaking. After the secondary antibody, the membranes are washed three times for 5 min each, and subjected to chemiluminescence imaging with ECL substrates (e.g. Pierce ECL Plus™, Thermo Fisher Scientific), to detect the protein bands of interest. Preliminary experiments indicate that the THAD as described herein may have an increased effect compared to DZ3a.
(In general: A western blot detects proteins with antibodies after separation by electrophoresis.)

A further test concerns H446 cells. Description: MTT cell viability / IC50 assay, H446. As to conditions: Homo sapiens, NCI-H446, 48 h. It is filed as cell-based. Here is the method: Cell culture: In the following examples, unless otherwise specified, all cell lines are purchased from American Type Culture Collection and cultured in American Type Culture Collection (ATCC)-recommended media, with fetal bovine serum (FBS) to a final concentration of 10% and 1× penicillin/streptomycin at 37° C. with 5% CO2 in a cell culture incubator, unless otherwise specified. Unless otherwise specified, culture is 2D. Where culture is 3D, low attachment plates are used, with the same media. C4-2B (ATCC® CRL-3315™, human prostate cancer cells of epithelial morphology) parental cell line and drug-resistant cells derived therefrom) are cultured in RPMI-1640 with 10% FBS. MDVR cells (an Enzalutamide-resistant variety of C4-2B prostate cancer cells formed as described below) are cultured as indicated for the parental C4-2B cells. Caki-1 cells (human clear cell renal cell carcinoma cells) are cultured in ATCC-formulated McCoy's 5a Medium Modified (ATCC Catalog No. 30-2007) with 10% FBS. […]
Each of the cell lines is treated either with a THAD (e.g. DZ-DHA-ether, MI-148-bis-DHA), or for comparison, with the DHA mono-ester “DZ-DHA”; alternatively/additionally, DZ1 and/or unconjugated DHA may serve as comparants. […] The absorbance density of the supernatant is read on a 96-well microplate reader at wavelength 595 nm. […]

Another test has as its system C4-2B MDVR cells. Description: Annexin V / PI flow cytometry, cell death and apoptosis. The test is classed as cell-based, human. As to conditions: for induced cell death after pretreatment with OATP inhibitor: 2 h pretreatment with OATP inhibitor telmisartan (TMS); for induced cell death after pretreatment with Midivi or Nec-1: 2 h pretreatment with mitochondrial fission inhibitor (Midivi) or necroptosis inhibitor (Nec-1); for cell death / apoptosis (Annexin V / PI): C4-2B MDVR, e.g. 5 uM, 6 h. Here is the method:
Example 5E: Cancer cells (here C4-2B MDVR) are pretreated with OATP inhibitor telmisartan (TMS), mevalonate (MVA), Midivi (Drp-1 inhibitor), and necrostatin-1 (Nec-1) for 2 h before treatment with vehicle, DHA, DZ-003 and/or a THAD (e.g. 5 uM each) for 6 h. Cells are subjected to annexin v staining (10 ul/10^6 cells) in the dark at RT for 15-20 min followed by PI staining at 1 mg/ml to determine the apoptosis of the cells based on the PI (red) and Annexin V (green) fluorescence by flow cytometry analysis using SONY SA3800 Spectral Analyzer. […] The vehicle and DHA treated cells remain viable (lower-left quadrant; blue population indicates live cells).

Another test has as its system MDVR cells. Description: Monobromobimane (mBBr) staining, cellular GSH levels. The test is classed as cell-based, human. As to conditions: 8 h, listed as DZ-003. Here is the method:
Example 5G: Cancer cells (here MDVR) are treated with DZ1, DHA and/or a THAD (e.g. 6 uM each) for 8 h, followed by monobromobimane (mBBr) staining at 40 uM for 30 min at 37° C., and analyzed with flow cytometry to determine the cellular GSH levels. Flow cytometry analysis of mBBr fluorescence (green) is performed as described in example 5E above. Preliminary experiments indicate that the THAD as described herein may provide a similar or increased effect.

“Also recorded” adds a separate entry of the source.

Consider two compounds from US20230226198A1, “Artemisinin Derivatives” (DA ZEN THERANOSTICS, INC., priority 2019, published 2023).

One may read the IC50 as the concentration needed to halve the response being measured.

For the compound `C[C@@H]1CC[C@H]2[C@@H](C)C(OC(=O)CCCCCN3/C(=C/C=C4\CCCC(/C=C/C5=[N+](CCCCS(=O)(=O)[O-])c6ccccc6C5(C)C)=C4Cl)C(C)(C)c4ccccc43)O[C@@H]3OC4(C)CC[C@@H]1[C@]32OO4` (stereo in doubt) [DZ3a], in test [1], the “DNA damage (levels of pATM and γH2AX)” value was “induces DNA damage”; the “depletion of mitochondria (levels of cytochrome c)” value is “depletes mitochondria”. Also, inhibition with H446 cells was half-maximal at 12.6 µM (IC50). Besides, in the test with C4-2B MDVR cells, the “induced cell death after pretreatment with OATP inhibitor” value is “partially inhibited by an OATP inhibitor (TMA)”; the “induced cell death after pretreatment with Midivi or Nec-1” value is “blocked by mitochondrial fission (Midivi) and necroptosis inhibitors (Nec-1)”; the “cell death / apoptosis (Annexin V / PI)” value is listed as “induces cell death”. In the test on C4-2B MDVR cells (listed as DZ-003), the “induced cell death after pretreatment with OATP inhibitor” value is “can be partially inhibited by an OATP inhibitor (TMS)”; the “induced cell death after pretreatment with Midivi or Nec-1” value was “can be blocked by mitochondrial fission (Midivi) and necroptosis inhibitor (Nec-1)”; the “cell death / apoptosis (Annexin V / PI)” value is “induced cell death”. The “induced cell death after pretreatment with mevalonate (MVA)” value with C4-2B MDVR cells (2 h pretreatment with mevalonate (MVA)) is on record as “not so much by mevalonic acid (MVA)”. The “cellular GSH levels (mBBr fluorescence)” value in the test with MDVR cells was “decreases cellular antioxidant GSH levels; also recorded: Decreased cellular GSH levels”.

In the case of `C[C@H]1[C@@H](O)O[C@@H]2O[C@@]3(C)CC[C@H]4[C@H](C)CC[C@@H]1[C@@]24OO3` [DHA, dihydroartemisinin], in the test with H446 cells, the IC50 turned out to be 287 µM.
